Assay results as given in patent publication US7232839B2, “Benzoisothiazolone compositions” (L'Oreal, priority 2004, dated 2007).

What was measured:
[1] = system: immortalized human sebocytes in culture, derived from the SZ95 line; test: Lipogenesis test: lipid content of sebocytes in culture by Nile red fluorescence; assay type: cell-based; settings: for LIPID VARIATION (relative to the control): treatment for 2 days, neutral lipids, Nile red
Procedure: The activity of the compounds (2c) and (1e) described above was tested on a model of immortalized human sebocytes in culture, derived from the SZ95 line described in Zouboulis, C. C., Seltmann, H., Neitzel, H. & Orfanos, C. E., Establishment and Characterization of an Immortalized Human Sebaceous Gland Cell Line, J. Invest. Dermatol., 113, 1011–1020 (1999).
The test consisted in measuring the amount of lipids produced by the sebocytes of the line (at confluence), in the presence or absence of an active agent, diluted in DMSO, such that the final amount of DMSO in the culture medium is 0.1%. After treatment for 2 days, the adherent cells are treated with Nile red (1 μg/ml). The lipid content is then quantified by measuring the fluorescence of the dye (excitation/emission couple: 485–540 nm for the neutral lipids).
The tests are performed in sextuplicate and the experiment is repeated four times.

[2] = system: immortalized human sebocytes in culture, derived from the SZ95 line; test: Proliferation tests (MUH) and cell viability tests (LDH) run in parallel; assay type: cell-based
Description: In parallel, proliferation tests (MUH) and cell viability tests (LDH) make it possible to check that the, effects obtained are not associated with an appreciable change in these biological parameters.

O=C1c2c(O)cccc2S(=O)(=O)N1c1ccccc1 [(1e), 4-hydroxy-2-phenyl-1,2-benzisothiazol-3(2H)-one 1,1-dioxide]
LIPID VARIATION (relative to the control) ([1]; concentration 10^−4 M): +39% | LIPID VARIATION (relative to the control) ([1]; concentration 10^−6 M): +16% | Proliferation/cytotoxicity ([2]; concentration 10^−4 M): no | Proliferation/cytotoxicity ([2]; concentration 10^−6 M): no

COc1ccc(N2C(=O)c3c(OC)cccc3S2(=O)=O)cc1 [(2c), 4-methoxy-2-(4-methoxyphenyl)-1,2-benzisothiazol-3(2H)-one 1,1-dioxide]
LIPID VARIATION (relative to the control) ([1]; concentration 10^−6 M): +43% | Proliferation/cytotoxicity ([2]; concentration 10^−6 M): no

C[C@]12CC[C@H](O)CC1=CC[C@@H]1[C@@H]2CC[C@]2(C)C(=O)CC[C@@H]12 [DHEA, reference compound]
increase in the lipid content of the sebum ([1]; concentration 10^−5 M, same test): 13%
